US10766864B2, “Morphinan derivatives for the treatment of neuropathic pain” (Nektar Therapeutics, priority 2015, dated 2020)
Like-named read-outs stand apart in the source and are kept apart here.

Legend:
[1] = biological target: NMDA receptor; test: Competitive radioligand binding at NMDA receptor ([3H] MK801), rat forebrain membranes; conditions: 0.2 nM [3H] MK801, reflects free base activity
Procedure: (§1) Receptor Binding at MOR and NMDA.
(§2) Affinities of various compounds were measured in vitro using competitive radioligand binding assays. Serial dilutions of test compounds were incubated with membranes prepared from CHO-K1 cells expressing the mu opioid receptor (MOR; for opioid receptor binding) or rat forebrain membranes (for NMDA receptor binding). 2 nM [^3H] Naloxone (MOR) or 0.2 nM [^3H] MK801 (NMDA) were used as the specific, competitive radioligands. 10 uM Naloxone (MOR), or 10 uM MK801 (NMDA) was used to determine non-specific binding. Bound radioactivity was measured using a scintillation counter & IC50 values for test compounds were determined by non-linear regression analysis using a one-site competition model (Graph Pad Prizm). Due to each test compound being solubilized in a buffered system for the assay, the results presented herein reflect the free base activity.

[2] = biological target: mu opioid receptor (MOR) (Homo sapiens (Human), UniProt P35372); test: Competitive radioligand binding at MOR ([3H] Naloxone)
Procedure: as §1, §2

[3] = membranes from CHO-K1 cells expressing MOR, 2 nM [3H] Naloxone, reflects free base activity, read-out: MOR IC50

CN1CC[C@]23CCCC[C@H]2[C@H]1Cc1ccc(Nc2cncnc2)cc13 [Compound 53, 17-methyl-N-(pyrimidin-5-yl)morphinan-3-amine]
IC50 [1]: > 10000 nM | IC50 [2]: 10 to 100 nM

COCCOCCOCCOCCOCCOc1cncc(Nc2ccc3c(c2)[C@@]24CCCC[C@H]2[C@@H](C3)N(C)CC4)c1 [Compound 54, (4bR,8aR,9R)—N-(5-(2,5,8,11,14-pentaoxahexadecan-16-yloxy)pyridin-3-yl)-11-methyl-6,7,8,8a,9,10-hexahydro-5H-9,4b-(epiminoethano)phenanthren-3-amine]
IC50 [1]: > 10000 nM | IC50 [2, 3]: 10 to 100 nM

CN1CC[C@]23CCCC[C@H]2[C@H]1Cc1ccc(Nc2cnccn2)cc13 [Compound 55, 17-methyl-N-(pyrazin-2-yl)morphinan-3-amine]
IC50 [1]: > 10000 nM | IC50 [2]: 0.1 to 10 nM

CN1CC[C@]23CCCC[C@H]2[C@H]1Cc1ccc(Nc2ccnnc2)cc13 [Compound 56, 17-methyl-N-(pyridazin-4-yl)morphinan-3-amine]
IC50 [1]: 0.1 to 100 nM | IC50 [2]: 100 to 1000 nM

CN1CC[C@]23CCCC[C@H]2[C@H]1Cc1ccc(N(c2ccccn2)c2ccccn2)cc13 [Compound 57, 17-methyl-N,N-di(pyridin-2-yl)morphinan-3-amine]
IC50 [1]: 1000 to 10000 nM | IC50 [2, 3]: > 1000 nM

COCCOCCOc1ccc(Nc2ccc3c(c2)[C@@]24CCCC[C@H]2[C@@H](C3)N(C)CC4)cn1 [Compound 58, N-{6-[2-(2-methoxyethoxy)ethoxy]pyridin-3-yl}-17-methylmorphinan-3-amine]
IC50 [1]: > 10000 nM | IC50 [2, 3]: 10 to 100 nM

COCCNc1ccc2c(c1)[C@@]13CCCC[C@H]1[C@@H](C2)N(C)CC3 [Compound 59, N-(2-methoxyethyl)-17-methylmorphinan-3-amine]
IC50 [1]: 1000 to 10000 nM | IC50 [2]: 100 to 1000 nM

CN1CC[C@]23CCCC[C@H]2[C@H]1Cc1ccc(Nc2cccnn2)cc13 [Compound 61, 17-methyl-N-(pyridazin-3-yl)morphinan-3-amine]
IC50 [1]: 1000 to 10000 nM | IC50 [2]: 100 to 1000 nM

CN1CC[C@]23CCCC[C@H]2[C@H]1Cc1ccc(-n2ccnc2)cc13 [Compound 62, 3-(1H-imidazol-1-yl)-17-methylmorphinan]
IC50 [1]: 100 to 1000 nM | IC50 [2]: 10 to 100 nM

CN1CC[C@]23CCCC[C@H]2[C@H]1Cc1ccc(Nc2ccccn2)cc13 [Compound 63, 17-methyl-N-(pyridin-2-yl)morphinan-3-amine]
IC50 [1]: 100 to 1000 nM | IC50 [2]: 100 to 1000 nM

COCCOCCOCCOCCOCCOc1ccc(Nc2ccc3c(c2)[C@@]24CCCC[C@H]2[C@@H](C3)N(C)CC4)cn1 [Compound 64, 17-methyl-N-[6-(2,5,8,11,14-pentaoxahexadecan-16-yloxy)pyridin-3-yl]morphinan-3-amine]
IC50 [1]: > 10000 nM | IC50 [2, 3]: 10 to 100 nM

COCCOCCn1cc(-c2ccc3c(c2)C24CCCCC2C(C3)N(C)CC4)cn1 (stereo not shown) [Compound 65, 3-{1-[2-(2-methoxyethoxy)ethyl]-1H-pyrazol-4-yl}-17-methylmorphinan]
IC50 [1]: > 10000 nM | IC50 [2, 3]: > 1000 nM

COCCOCCOc1cnccc1Nc1ccc2c(c1)[C@@]13CCCC[C@H]1[C@@H](C2)N(C)CC3 [Compound 66, (4bR,8aR,9R)—N-(3-(2-(2-methoxyethoxy)ethoxy)pyridin-4-yl)-11-methyl-6,7,8,8a,9,10-hexahydro-5H-9,4b-(epiminoethano)phenanthren-3-amine]
IC50 [1]: 1000 to 10000 nM | IC50 [2, 3]: 100 to 1000 nM

COCCOCCOc1cc(Nc2ccc3c(c2)[C@@]24CCCC[C@H]2[C@@H](C3)N(C)CC4)ccn1 [Compound 67, N-{2-[2-(2-methoxyethoxy)ethoxy]pyridin-4-yl}-17-methylmorphinan-3-amine]
IC50 [1]: > 10000 nM | IC50 [2, 3]: 100 to 1000 nM

COCCOCCOCC(=O)Nc1nc2cc3c(cc2s1)C[C@@H]1[C@@H]2CCCC[C@]32CCN1C [Compound 68, 2-[2-(2-methoxyethoxy)ethoxy]-N— [(4aR,5R,11bR)-14-methyl-2,3,4,4a,5,6-hexahydro-1H-5,11b-(epiminoethano)phenanthro[3,2-d][1,3]thiazol-9-yl]acetamide]
IC50 [1]: 1000 to 10000 nM | IC50 [2, 3]: > 1000 nM

COCCOCCOCCNc1nc2cc3c(cc2s1)C[C@@H]1[C@@H]2CCCC[C@]32CCN1C [Compound 71, (4aR,5R,11bR)—N-(2-(2-(2-methoxyethoxy)ethoxy)ethyl)-14-methyl-2,3,4,4a,5,6-hexahydro-1H-5,11b-(epiminoethano)phenanthro[3,2-d]thiazol-9-amine]
IC50 [1]: 1000 to 10000 nM | IC50 [2, 3]: 100 to 1000 nM

COCCNC(=O)Nc1nc2cc3c(cc2s1)C[C@@H]1[C@@H]2CCCC[C@]32CCN1C [Compound 72, 1-(2-methoxyethyl)-3-((4aR,5R,11bR)-14-methyl-2,3,4,4a,5,6-hexahydro-1H-5,11b-(epiminoethano)phenanthro[3,2-d]thiazol-9-yl)urea]
IC50 [1]: > 10000 nM | IC50 [2, 3]: > 1000 nM

COCCOc1cc2c(cc1O)[C@@]13CCCCC1[C@@H](C2)N(C)CC3 (stereo partly shown) [Compound 73, 2-(2-methoxyethoxy)-17-methylmorphinan-3-ol]
IC50 [1]: 1000 to 10000 nM | IC50 [2]: 100 to 1000 nM

COCCOc1cc(O)cc2c1C[C@@H]1[C@@H]3CCCC[C@]23CCN1C [Compound 74, 1-(2-methoxyethoxy)-17-methylmorphinan-3-ol]
IC50 [1]: > 10000 nM | IC50 [2, 3]: > 1000 nM

COCCOCCOCCO[C@H]1CCC[C@H]2[C@H]3Cc4ccc(O)cc4[C@@]12CCN3C [Compound 75, (5α)-5-{2-[2-(2-methoxyethoxy)ethoxy]ethoxy}-17-methylmorphinan-3-ol]
IC50 [1]: > 10000 nM | IC50 [2, 3]: 10 to 100 nM

COCCNc1cc2c(cc1[N+](=O)[O-])C[C@@H]1[C@@H]3CCCC[C@]23CCN1C [Compound 76, N-(2-methoxyethyl)-17-methyl-2-nitromorphinan-3-amine]
IC50 [1]: > 10000 nM | IC50 [2, 3]: > 1000 nM

COCCOCCOCCOCCOCCNc1nc2ccc3c(c2s1)[C@@]12CCCC[C@H]1[C@@H](C3)N(C)CC2 [Compound 77, (7R,7aR,11aR)—N-(2,5,8,11,14-pentaoxahexadecan-16-yl)-14-methyl-7,7a,8,9,10,11-hexahydro-6H-7,11a-(epiminoethano)phenanthro[3,4-d]thiazol-2-amine]
IC50 [1]: > 10000 nM | IC50 [2, 3]: > 1000 nM

COCCOCCOCCNc1nc2ccc3c(c2s1)[C@@]12CCCC[C@H]1[C@@H](C3)N(C)CC2 [Compound 78, (7R,7aR,11aR)—N-(2-(2-(2-methoxyethoxy)ethoxy)ethyl)-14-methyl-7,7a,8,9,10,11-hexahydro-6H-7,11a-(epiminoethano)phenanthro[3,4-d]thiazol-2-amine]
IC50 [1]: > 10000 nM | IC50 [2, 3]: > 1000 nM

COCCOCCC(=O)Nc1ccc2c(c1)[C@@]13CCCC[C@H]1[C@@H](C2)N(C)CC3 [Compound 79, 3-(2-methoxyethoxy)-N-((4bR,8aR,9R)-11-methyl-6,7,8,8a,9,10-hexahydro-5H-9,4b-(epiminoethano)phenanthren-3-yl)propanamide]
IC50 [1]: > 10000 nM | IC50 [2, 3]: > 1000 nM

COCCOCCOCCOCCOCCCC(=O)Nc1nc2cc3c(cc2s1)C[C@@H]1[C@@H]2CCCC[C@]32CCN1C [Compound 80, N-[(4aR,5R,11bR)-14-methyl-2,3,4,4a,5,6-hexahydro-1H-5,11b-(epiminoethano)phenanthro[3,2-d][1,3]thiazol-9-yl]-2,5,8,11,14-pentaoxaoctadecan-18-amide]
IC50 [1]: 1000 to 10000 nM | IC50 [2, 3]: > 1000 nM

CN1CC[C@]23CCCC[C@H]2[C@H]1Cc1cc2nc[nH]c2cc13 [Compound 81, (4aR,5R,11bR)-14-methyl-1,2,3,4,4a,5,6,10-octahydro-5,11b-(epiminoethano)phenanthro[2,3-d]imidazole]
IC50 [1]: > 10000 nM | IC50 [2]: 10 to 100 nM

CN1CC[C@]23CCCC[C@H]2[C@H]1Cc1cc2nc(N)[nH]c2cc13 [Compound 82, (4aR,5R,11bR)-14-methyl-1,2,3,4,4a,5,6,10-octahydro-5,11b-(epiminoethano)phenanthro[2,3-d]imidazol-9-amine]
IC50 [1]: > 10000 nM | IC50 [2, 3]: 100 to 1000 nM

CN1CC[C@]23CCCC[C@H]2[C@H]1Cc1cc2sc(NC(=N)N)nc2cc13 [Compound 84, 1-((4aR,5R,11bR)-14-methyl-2,3,4,4a,5,6-hexahydro-1H-5,11b-(epiminoethano)phenanthro[3,2-d]thiazol-9-yl)guanidine]
IC50 [1]: 1000 to 10000 nM | IC50 [2, 3]: 100 to 1000 nM

CN1CC[C@]23CCCC[C@H]2[C@H]1Cc1cc2sc(NC(=O)C4CCN(C(=O)OC(C)(C)C)CC4)nc2cc13 [Compound 85, tert-butyl 4-{[(4aR,5R,11bR)-14-methyl-2,3,4,4a,5,6-hexahydro-1H-5,11b-(epiminoethano)phenanthro[3,2-d][1,3]thiazol-9-yl]carbamoyl}piperidine-1-carboxylate]
IC50 [1]: > 10000 nM | IC50 [2, 3]: > 1000 nM

COCCN1CC[C@]23CCCC[C@H]2[C@H]1Cc1ccc(Nc2cccnc2)cc13 [Compound 86, 17-(2-methoxyethyl)-N-(pyridin-3-yl)morphinan-3-amine]
IC50 [1]: 1000 to 10000 nM | IC50 [2]: 0.1 to 10 nM

Oc1ccc2c(c1)[C@@]13CCCC[C@H]1[C@@H](C2)N(C1COC1)CC3 [Compound 87, 17-(oxetan-3-yl)morphinan-3-ol]
IC50 [1]: > 10000 nM | IC50 [2, 3]: > 1000 nM

Oc1ccc2c(c1)[C@@]13CCCC[C@H]1[C@@H](C2)N(CC1COC1)CC3 [Compound 88, 17-(oxetan-3-ylmethyl)morphinan-3-ol]
IC50 [1]: 1000 to 10000 nM | IC50 [2]: 10 to 100 nM
